Assay results: patent publication US8952024B2, “Herbicidal pyrimidone derivatives” (E I du Pont de Nemours and Company, priority 2009, dated 2015)

Columns and labels:
Type in all cases: in vivo
[1] = system: umbrella sedge (Cyperus difformis); test: Test B flooded paddy test; conditions: for Plant response rating, Flood, Sedge, Umbrella: 250 g ai/ha, flooded paddy test, visual rating on 0 to 100 scale (0 no effect, 100 complete control) after 13 to 15 days; for Plant response rating, Sedge, Umbrella: Flood (flooded paddy test), 13 to 15 days; for Sedge, Umbrella plant response rating: Flood, 31 g ai/ha, scale 0 to 100 (0 no effect, 100 complete control)
Method in brief: (§1)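 Each compound is added to standing floodwater (3 cm above soil, maintained) in pots of 2-leaf-stage plants; greenhouse exposure lasts 13–15 d before visual comparison with controls on a 0–100 control scale.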

[2] = system: barnyardgrass (Echinochloa crus-galli); test: Test B flooded paddy test; conditions: for Plant response rating, Flood, Barnyardgrass: 250 g ai/ha, flooded paddy test, visual rating on 0 to 100 scale (0 no effect, 100 complete control) after 13 to 15 days; for Plant response rating, Barnyardgrass: Flood (flooded paddy test), 13 to 15 days; for Barnyardgrass plant response rating: Flood, 31 g ai/ha, scale 0 to 100 (0 no effect, 100 complete control)
Method in brief: as §1

[3] = system: ducksalad (Heteranthera limosa); test: Test B flooded paddy test; conditions: for Plant response rating, Flood, Ducksalad: 250 g ai/ha, flooded paddy test, visual rating on 0 to 100 scale (0 no effect, 100 complete control) after 13 to 15 days; for Plant response rating, Ducksalad: Flood (flooded paddy test), 13 to 15 days; for Ducksalad plant response rating: Flood, 31 g ai/ha, scale 0 to 100 (0 no effect, 100 complete control)
Method in brief: as §1

[4] = system: rice (Oryza sativa); test: Test B flooded paddy test; conditions: for Plant response rating, Flood, Rice: 250 g ai/ha, flooded paddy test, visual rating on 0 to 100 scale (0 no effect, 100 complete control) after 13 to 15 days; for Plant response rating, Rice: Flood (flooded paddy test), 13 to 15 days; for Rice plant response rating: Flood, 31 g ai/ha, scale 0 to 100 (0 no effect, 100 complete control)
Method in brief: as §1

[5] = system: large crabgrass (Digitaria sanguinalis); test: Test A pre-/postemergence plant response
Method in brief: (§2)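 Plants grown from seed in a loam soil and sand mix received test compounds both as a preemergence soil spray and, at the same time, as a postemergence spray at the one- to two-leaf stage. Injury was judged visually against untreated controls roughly ten days later, 0 meaning no effect and 100 complete control.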

[6] = system: morningglory (Ipomoea spp.); test: Test A pre-/postemergence plant response
Method in brief: as §2

[7] = system: giant foxtail (Setaria faberii); test: Test A pre-/postemergence plant response
Method in brief: as §2

[8] = system: corn (Zea mays); test: Test A pre-/postemergence plant response
Method in brief: as §2

[9] = system: barnyardgrass (Echinochloa crus-galli); test: Test A pre-/postemergence plant response
Method in brief: as §2

[10] = system: velvetleaf (Abutilon theophrasti); test: Test A pre-/postemergence plant response
Method in brief: as §2

[11] = system: pigweed (Amaranthus retroflexus); test: Test A pre-/postemergence plant response; conditions: Postemergence
Method in brief: as §2

[12] = system: wheat (Triticum aestivum); test: Test A pre-/postemergence plant response
Method in brief: as §2

[13] = system: winter barley (Hordeum vulgare); test: Test B postemergence plant response; conditions: for Barley plant response rating (0 to 100 scale): 62 g ai/ha, 0 is no effect, 13 to 15 days
Method in brief: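 Plants at the 1- to 4-leaf stage (2 to 18 cm tall), grown in pots of peat moss/vermiculite medium with wetting agent and starter nutrients, received postemergence applications of test chemicals. After 13 to 15 days in a greenhouse, injury was rated visually against untreated controls on a 0 (no effect) to 100 (complete control) scale.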

[14] = 62 g ai/ha, scale of 0 to 100 where 0 is no effect and 100 is complete control
[15] = 125 g ai/ha, scale 0 to 100, 0 is no effect, 100 is complete control
[16] = Postemergence, 125 g ai/ha, 0 to 100 scale where 0 is no effect and 100 is complete control
[17] = Postemergence, 500 g ai/ha, 0 to 100 scale, 0 = no effect, 100 = complete control, approx. ten days
[18] = Preemergence, 125 g ai/ha, 0 to 100 scale, 0 = no effect, 100 = complete control
[19] = Preemergence, 500 g ai/ha, visual injury, 0 to 100 scale (0 no effect, 100 complete control), approx. ten days
[20] = 125 g ai/ha, 0 to 100 scale where 0 is no effect and 100 is complete control
[21] = 500 g ai/ha, 0 to 100 scale, 0 = no effect, 100 = complete control, approx. ten days
[22] = 31 g ai/ha, postemergence, scale 0 to 100, 0 is no effect, 100 is complete control
[23] = postemergence, 100 is complete control
[24] = Postemergence, 125 g ai/ha, visual rating after 13 to 15 days, scale 0 (no effect) to 100 (complete control)
[25] = Postemergence, 250 g ai/ha, scale 0 to 100 (0 no effect, 100 complete control)

SMILES: COCCn1c(-c2ccccc2)ncc(C(=O)C2=C(O)CCCC2=O)c1=O [Compound 85]
- Plant response rating, Flood, Sedge, Umbrella [1]: 80
- Plant response rating, Sedge, Umbrella [1, 14]: 75
- Plant response rating, Sedge, Umbrella [1, 15]: 80
- Sedge, Umbrella plant response rating [1]: 50
- Plant response rating, Flood, Barnyardgrass [2]: 65
- Plant response rating, Barnyardgrass [2, 14]: 25
- Plant response rating, Barnyardgrass [2, 15]: 55
- Barnyardgrass plant response rating [2]: 25
- Plant response rating, Flood, Ducksalad [3]: 65
- Plant response rating, Ducksalad [3, 14]: 50
- Plant response rating, Ducksalad [3, 15]: 60
- Ducksalad plant response rating [3]: 40
- Plant response rating, Flood, Rice [4]: 20
- Plant response rating, Rice [4, 14]: 0
- Plant response rating, Rice [4, 15]: 15
- Rice plant response rating [4]: 0
- Plant response rating, Crabgrass, Large [5, 16]: 90
- Plant response rating, Crabgrass, Large [5, 17]: 90
- Plant response rating, Crabgrass, Large [5, 18]: 100
- Plant response rating, Crabgrass, Large [5, 19]: 100
- Plant response rating, Morningglory [6, 16]: 100
- Plant response rating, Morningglory [6, 17]: 100
- Plant response rating, Morningglory [6, 18]: 50
- Plant response rating, Morningglory [6, 19]: 80
- Plant response rating, Foxtail, Giant [7, 16]: 70
- Plant response rating, Foxtail, Giant [7, 17]: 90
- Plant response rating, Foxtail, Giant [7, 19]: 90
- Plant response rating, Corn [8, 16]: 10
- Plant response rating, Corn [8, 17]: 80
- Plant response rating, Corn [8, 18]: 0
- Plant response rating, Corn [8, 19]: 10
- Plant response rating, Barnyardgrass [9, 16]: 90
- Plant response rating, Barnyardgrass [9, 17]: 90
- Plant response rating, Barnyardgrass [9, 18]: 50
- Plant response rating, Barnyardgrass [9, 19]: 100
- Plant response rating, Velvetleaf [10, 16]: 100
- Plant response rating, Velvetleaf [10, 17]: 100
- Plant response rating, Velvetleaf [10, 18]: 70
- Plant response rating, Pigweed [11, 20]: 100
- Plant response rating, Pigweed [11, 21]: 100
- Plant response rating, Wheat [12, 16]: 0
- Plant response rating, Wheat [12, 17]: 40
- Plant response rating, Wheat [12, 18]: 0
- Plant response rating, Wheat [12, 19]: 40
- Plant response rating, Barley [13, 22]: 5
- Barley plant response rating (0 to 100 scale) [13, 23]: 10
- Plant response rating, Barley [13, 24]: 20
- Plant response rating, Barley [13, 25]: 20

SMILES: CCCCn1c(-c2ccccc2)ncc(C(=O)C2=C(O)CCCC2=O)c1=O [Compound 86]
- Plant response rating, Flood, Sedge, Umbrella [1]: 85
- Plant response rating, Sedge, Umbrella [1, 14]: 30
- Plant response rating, Sedge, Umbrella [1, 15]: 70
- Sedge, Umbrella plant response rating [1]: 20
- Plant response rating, Flood, Barnyardgrass [2]: 60
- Plant response rating, Barnyardgrass [2, 14]: 40
- Plant response rating, Barnyardgrass [2, 15]: 50
- Barnyardgrass plant response rating [2]: 30
- Plant response rating, Flood, Ducksalad [3]: 65
- Plant response rating, Ducksalad [3, 14]: 55
- Plant response rating, Ducksalad [3, 15]: 55
- Ducksalad plant response rating [3]: 0
- Plant response rating, Flood, Rice [4]: 40
- Plant response rating, Rice [4, 14]: 0
- Plant response rating, Rice [4, 15]: 20
- Rice plant response rating [4]: 0
- Plant response rating, Crabgrass, Large [5, 16]: 90
- Plant response rating, Crabgrass, Large [5, 17]: 90
- Plant response rating, Morningglory [6, 16]: 90
- Plant response rating, Morningglory [6, 17]: 90
- Plant response rating, Morningglory [6, 18]: 0
- Plant response rating, Morningglory [6, 19]: 60
- Plant response rating, Foxtail, Giant [7, 16]: 80
- Plant response rating, Foxtail, Giant [7, 17]: 90
- Plant response rating, Foxtail, Giant [7, 19]: 100
- Plant response rating, Corn [8, 16]: 0
- Plant response rating, Corn [8, 17]: 50
- Plant response rating, Barnyardgrass [9, 16]: 90
- Plant response rating, Barnyardgrass [9, 17]: 90
- Plant response rating, Barnyardgrass [9, 18]: 20
- Plant response rating, Barnyardgrass [9, 19]: 100
- Plant response rating, Velvetleaf [10, 16]: 100
- Plant response rating, Velvetleaf [10, 17]: 100
- Plant response rating, Velvetleaf [10, 19]: 100
- Plant response rating, Pigweed [11, 20]: 100
- Plant response rating, Pigweed [11, 21]: 100
- Plant response rating, Wheat [12, 16]: 0
- Plant response rating, Wheat [12, 17]: 50
- Plant response rating, Barley [13, 22]: 30
- Barley plant response rating (0 to 100 scale) [13, 23]: 40
- Plant response rating, Barley [13, 24]: 60
- Plant response rating, Barley [13, 25]: 65

SMILES: O=C1CCCC(OC(=O)C2CC2)=C1C(=O)c1cnc(-c2ccccc2)n(-c2ccccc2)c1=O [Compound 88]
- Plant response rating, Flood, Sedge, Umbrella [1]: 65
- Plant response rating, Sedge, Umbrella [1, 14]: 30
- Plant response rating, Sedge, Umbrella [1, 15]: 40
- Sedge, Umbrella plant response rating [1]: 0
- Plant response rating, Flood, Barnyardgrass [2]: 60
- Plant response rating, Barnyardgrass [2, 14]: 20
- Plant response rating, Barnyardgrass [2, 15]: 40
- Barnyardgrass plant response rating [2]: 0
- Plant response rating, Flood, Ducksalad [3]: 80
- Plant response rating, Ducksalad [3, 14]: 40
- Plant response rating, Ducksalad [3, 15]: 75
- Ducksalad plant response rating [3]: 30
- Plant response rating, Flood, Rice [4]: 50
- Plant response rating, Rice [4, 14]: 0
- Plant response rating, Rice [4, 15]: 40
- Rice plant response rating [4]: 0
- Plant response rating, Crabgrass, Large [5, 16]: 90
- Plant response rating, Crabgrass, Large [5, 17]: 90
- Plant response rating, Morningglory [6, 16]: 90
- Plant response rating, Morningglory [6, 17]: 100
- Plant response rating, Morningglory [6, 18]: 50
- Plant response rating, Morningglory [6, 19]: 70
- Plant response rating, Foxtail, Giant [7, 16]: 60
- Plant response rating, Foxtail, Giant [7, 17]: 90
- Plant response rating, Foxtail, Giant [7, 19]: 100
- Plant response rating, Corn [8, 16]: 0
- Plant response rating, Corn [8, 17]: 60
- Plant response rating, Corn [8, 18]: 0
- Plant response rating, Corn [8, 19]: 0
- Plant response rating, Barnyardgrass [9, 16]: 80
- Plant response rating, Barnyardgrass [9, 17]: 90
- Plant response rating, Barnyardgrass [9, 18]: 10
- Plant response rating, Barnyardgrass [9, 19]: 90
- Plant response rating, Velvetleaf [10, 16]: 100
- Plant response rating, Velvetleaf [10, 17]: 100
- Plant response rating, Velvetleaf [10, 18]: 80
- Plant response rating, Velvetleaf [10, 19]: 100
- Plant response rating, Pigweed [11, 20]: 100
- Plant response rating, Pigweed [11, 21]: 100
- Plant response rating, Wheat [12, 16]: 0
- Plant response rating, Wheat [12, 17]: 0
- Plant response rating, Wheat [12, 18]: 0
- Plant response rating, Wheat [12, 19]: 10
- Plant response rating, Barley [13, 22]: 30
- Barley plant response rating (0 to 100 scale) [13, 23]: 30
- Plant response rating, Barley [13, 24]: 40
- Plant response rating, Barley [13, 25]: 80
